What follows are molecules tested against T1, human Oxytocin (hOT) receptor (Homo sapiens, UniProt P30559) (assay: In vitro competition binding assay on hOT receptor with scintillation proximity assay ([125I]-OVTA)). Conditions: membranes from HEK293EBNA cells expressing the hOT receptor; 0.2 nM [125I]-OVTA; SPA; read-out: Binding Affinity hOT-R (Ki [nM]).
T1 construct: expressed in transfected cells; host or cells: HEK293EBNA (membranes)
T1 sequence (P30559 1-389): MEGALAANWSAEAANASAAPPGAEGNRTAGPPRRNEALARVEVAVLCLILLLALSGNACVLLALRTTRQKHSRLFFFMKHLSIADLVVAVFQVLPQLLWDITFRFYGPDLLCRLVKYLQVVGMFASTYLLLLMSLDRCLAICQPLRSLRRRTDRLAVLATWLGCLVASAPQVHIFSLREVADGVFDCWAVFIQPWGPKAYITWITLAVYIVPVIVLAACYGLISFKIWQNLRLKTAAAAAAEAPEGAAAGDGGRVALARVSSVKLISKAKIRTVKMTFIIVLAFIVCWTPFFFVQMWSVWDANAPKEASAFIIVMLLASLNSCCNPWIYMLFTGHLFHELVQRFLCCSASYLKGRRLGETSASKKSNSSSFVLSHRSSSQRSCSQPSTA
Description: The compounds according to formula (I) may be subjected to the following assays: • a) In Vitro Competition Binding Assay on hOT Receptor with Scintillation Proximity Assay (11).
This assay allows to determine the affinity of the test compounds for the human Oxytocin (hOT) receptor. Membranes from HEK293EBNA (cells expressing the hOT receptor) were suspended in buffer containing 50 mM Tris-HCl, pH 7.4, 5 mM MgCl2 and 0.1% BSA (w/v). The membranes (2-4 μg) were mixed with 0.1 mg SPA bead coated with wheat-germ aglutinin (WGA-PVT-Polyethylene Imine beads from Amersham) and 0.2 nM of the radiolabelled [^125I]-OVTA (OVTA being Ornithin Vasoactive, an analogue of OT for competitive binding experiments). Non-specific binding was determined in the presence of 1 μM Oxytocin. The total assay volume was 100 μl. The plates (Corning® NBS plate) were incubated at room temperature for 30 min and counted on a Mibrobeta® plate scintillation counter. Competitive binding was performed in presence of compounds of formula (I) at the following concentrations: 30 μM, 10 μM, 1 μM, 300 nM, 100 nM, 10 nM, 1 nM, 100 pM, 10 pM. The competitive binding data were analysed using the iterative, nonlinear, curve-fitting program, “Prism” (GraphPad Software, Inc).
The ability of pyrrolidine derivatives of formula (I) to inhibit the binding of ^125I-OVTA to the OT-receptor was assessed using the above described in vitro biological assay. Representative values for some example compounds are given in Table I where the binding affinity of test compounds from the above examples is expressed by the inhibition constant (Ki; nM). From these values, it can be derived that said test compounds according to formula (I) do show a significant binding to the oxytocin receptor.

Row | Ki | Compound
1 | 144 nM | CON=C1CC(CCC(=O)OC)N(C(=O)c2ccc(-c3ccccc3)cc2)C1 [Example 2, methyl 3-[(2R,4EZ)-1-biphenyl-4-ylcarbonyl)-4-(methoxyimino)pyrrolidin-2-yl]propanoate]
2 | 67 nM | CON=C1CC(CC(=O)NC[C@H](O)c2ccccc2)N(C(=O)c2ccc(-c3ccccc3)cc2)C1 (stereo partly drawn) [Example 5]
3 | 77 nM | CON=C1C[C@@H](CCC(=O)NC[C@@H](O)c2ccccc2)N(C(=O)c2ccc(-c3ccccc3)cc2)C1 [Example 6, 3-[(2R,4EZ)-1-(biphenyl-4-ylcarbonyl)-4-(methoxyimino)pyrrolidin-2-yl]-N-[(2S)-2-hydroxy-2-phenylethyl]propanamide]

Further lines, the molecule ahead of its results:

Row | Compound | Ki
4 | CON=C1C[C@@H](CC(=O)OC)N(C(=O)c2ccc(-c3ccccc3)cc2)C1 [Example 1, methyl [(2S,4EZ)-1-(biphenyl-4-ylcarbonyl)-4-(methoxyimino)pyrrolidin-2-yl]acetate] | 37 nM
5 | CON=C1C[C@@H](CC(=O)OC2CCCC2)N(C(=O)c2ccc(-c3ccccc3)cc2)C1 [Example 3, cyclopentyl [(2S,4EZ)-1-(biphenyl-4-ylcarbonyl)-4-(methoxyimino)pyrrolidin-2-yl]acetate] | 46 nM
6 | CON=C1CC(CC(=O)N2CCOCC2)N(C(=O)c2ccc(-c3ccccc3)cc2)C1 [Example 9, (3EZ,5S)-1-(biphenyl-4-ylcarbonyl-5-(2-morpholin-4yl-2-oxoethyl)pyrrolidin-3-one O-methyloxime] | 142 nM
